The values below come from patent US10273241B2 (President and Fellows of Harvard College, priority 2013, dated 2019).

The test system of one assay is MOLM-14. Put plainly: Cell growth assay, MOLM-14 AML cell line. In kind it is cell-based, human. As to the method:
(§1) For all other cell lines, compounds were serially diluted in medium and dispensed in triplicate in 96-well plates (0.1% DMSO final for assay) followed by the addition of exponentially growing cells at densities ranging from 5,000 to 30,000 cells/well. Cells were also seeded into 2 additional control wells containing vehicle (0.1% DMSO). […] To determine the estimated cell number in each well, cells that were counted in the control well were diluted 3-fold for an 8-point dilution series, and transferred to 384-well plates in duplicate, 20 μL per well. Cells in all other wells were diluted 4-fold and transferred to 384-well plates in duplicate, 20 μL per well. 20 μL of CellTiter-Glo (Promega) was subsequently added to all wells and luminescence was detected using a SPECTRAmax M3. The control well dilution series was fit to a linear regression and used as a standard for calculating the estimated cell number for each well. For days 7 and 10, total estimated cell number represents the split-adjusted theoretical cell number.

A further assay deals with MV4;11. Put plainly: Cell growth assay, MV4;11 AML cell line. In kind it is cell-based, human. As to the method:
as §1

Where [1] appears, read: day 10, cells passaged, fresh compound added on days 3 and 7, read-out: MOL M14 G150 day 10.
The mark [2] stands for this setting: day 10, cells passaged, fresh compound added on days 3 and 7, read-out: MV 4;11 GI50 day 10.
The mark [3] stands for this setting: Homo sapiens, MOLM-14, 240 h, day 10, cells passaged, fresh compound added on days 3 and 7, read-out: MOL M14 G150 day 10.
Where [4] appears, read: Homo sapiens, MV4-11, 240 h, day 10, cells passaged, fresh compound added on days 3 and 7, read-out: MV 4;11 GI50 day 10.
Where [5] appears, read: Homo sapiens, MOLM-14, 168 h, day 7, printed as symbol, read-out: MOL M14 GI50 day 7.
Setting [6] is: Homo sapiens, MV4-11, 168 h, day 7, printed as symbol, read-out: MV4;11 GI50 day 7.

Molecules are shown by their SMILES. Like-named read-outs stand apart in the source and are kept apart here.

For `CNC(=O)O[C@@H]1CCC2=CC3=CC[C@]4(C)[C@@H](c5ccc6ccncc6c5)CC[C@H]4[C@@]34CCC2(C1)O4` [68A, α-monomethylcarbamate], the GI50 in the assay on MOLM-14 (setting [1]) is 150 nM; in the assay on MV4;11 (setting [2]), 120 nM.
For `CC1(N[C@H]2CCC3=CC4=CC[C@]5(C)C(c6ccc7ccncc7c6)CC[C@H]5C45CC[C@]3(C2)O5)COC1` (stereo partly drawn) [41B, β-3-methyl-3-oxetanamine], the GI50 in the assay on MOLM-14 (setting [3]) worked out at 16 nM; in the assay on MV4;11 (setting [4]), 8 nM.
`CO[C@@H]1CCC2=CC3=CC[C@]4(C)[C@@H](c5ccc6ccncc6c5)CC[C@H]4[C@@]34CCC2(C1)O4` [64A, α-methylether]: the GI50 in the assay with MOLM-14 (setting [1]) was 45 nM; with MV4;11 (setting [2]) it was 15 nM.
Regarding `CC(C)(C)N[C@H]1CCC2=CC3=CC[C@]4(C)C(c5ccc6ccncc6c5)CC[C@H]4C34CC[C@]2(C1)O4` (stereo partly drawn) [43B, β-t-butylamine], the GI50 came to 150 nM with MOLM-14 (setting [3]) and 95 nM in the assay with MV4;11 (setting [4]).
`C[C@]12CC=C3C=C4CC[C@H](N5CC[C@H](F)C5)C[C@]45CC[C@]3(O5)[C@@H]1CC[C@@H]2c1ccc2ccncc2c1` [36B, β-(S)-3-fluoropyrrolidine]: the GI50 amounted to 95 nM in the assay with MOLM-14 (setting [3]) and 19 nM in the assay with MV4;11 (setting [4]).
On to `C[C@]12CC=C3C=C4CC[C@H](N)CC45CC[C@]3(O5)[C@@H]1CC[C@@H]2c1ccc2ccncc2c1` [62B, β-primaryamine], for which the GI50 with MOLM-14 (setting [3]) worked out at 70 nM; in the assay with MV4;11 (setting [4]), 20 nM.
As to `CN(C)[C@H]1CCC2=CC3=CC[C@]4(C)C(c5ccc6cn[nH]c6c5)=CC[C@H]4C34CC[C@]2(C1)O4` [58B, β-dimethylamine 17,18-unsaturated 6-indazole], the GI50 in the assay with MOLM-14 (setting [5]) and in the assay with MV4;11 (setting [6]) was over 1000 nM in each case.
With `C[C@]12CC=C3C=C4CC[C@@H](O)CC45CC[C@]3(O5)[C@@H]1CC[C@@H]2c1ccc2ccncc2c1` [17A, α-alcohol], the GI50 was 6 nM with MOLM-14 (setting [1]) and 1 nM with MV4;11 (setting [2]).
Take `C[C@]12CC=C3C=C4CC[C@H](NCCS(N)(=O)=O)C[C@]45CCC3(O5)[C@@H]1CC[C@@H]2c1ccc2ccncc2c1` [71B]: the results for the GI50 in the assay with MOLM-14 (setting [3]) and in the assay with MV4;11 (setting [4]) were 50 nM and 18 nM, respectively.
The corresponding values for `CN(CCF)[C@H]1CCC2=CC3=CC[C@]4(C)C(c5ccc6ccncc6c5)CC[C@H]4[C@@]34CC[C@]2(C1)O4` (stereo partly drawn) [29B, β-2-fluoroethylmethylamine] are 14 nM and 7 nM.
The corresponding values for `C[C@]12CC=C3C=C4CC[C@@H](NCCS(N)(=O)=O)C[C@]45CCC3(O5)[C@@H]1CC[C@@H]2c1ccc2ccncc2c1` [71A] are 20 nM and 2 nM.
For `CN(CC(F)F)[C@H]1CCC2=CC3=CC[C@]4(C)C(c5ccc6ccncc6c5)CC[C@H]4[C@@]34CC[C@]2(C1)O4` (stereo partly drawn) [30B, β-2,2-difluoroethylmethylamine], the GI50 amounted to 55 nM with MOLM-14 (setting [3]) and 20 nM in the assay on MV4;11 (setting [4]).
The corresponding values for `CC1(O)CN([C@@H]2CCC3=CC4=CC[C@]5(C)[C@@H](c6ccc7ccncc7c6)CC[C@H]5C45CC[C@]3(C2)O5)C1` [69A, α-hydroxymethylazetidine] are 30 nM and 9.5 nM.
Regarding `CN(C)[C@H]1CCC2=CC3=CC[C@]4(C)C(c5ccc6[nH]ncc6c5)=CC[C@H]4C34CC[C@]2(C1)O4` [61B, β-dimethylamine 17,18-unsaturated 5-indazole], the GI50 in the assay on MOLM-14 (setting [5]) and in the assay on MV4;11 (setting [6]) was over 1000 nM throughout.
Turning to `CN[C@H]1CCC2=CC3=CC[C@]4(C)C(c5ccc6ccncc6c5)CC[C@H]4C34CC[C@]2(C1)O4` (stereo partly drawn) [24B, β-monomethylamine], the GI50 with MOLM-14 (setting [3]) turned out to be 50 nM; in the assay with MV4;11 (setting [4]), 20 nM.
As to `CN(C)[C@H]1CCC2=CC3=CC[C@]4(C)[C@@H](NCc5cccnc5)CC[C@H]4C34CC[C@]2(C1)O4` [46B, β-dimethylamine aminomethylpyridine], the GI50 with MOLM-14 (setting [5]) and with MV4;11 (setting [6]) was over 1000 nM each time.
`C[C@]12CC=C3C=C4CC[C@H](N5C[C@H](O)C[C@H]5C(=O)O)C[C@]45CCC3(O5)[C@@H]1CCC2c1ccc2ccncc2c1` (some centres unmarked) [65B]: the GI50 in the assay with MOLM-14 (setting [3]) came to 16 nM; in the assay on MV4;11 (setting [4]), 3 nM.
On to `COCCN(CCOC)[C@H]1CCC2=CC3=CC[C@]4(C)C(c5ccc6ccncc6c5)CC[C@H]4[C@@]34CC[C@]2(C1)O4` (stereo partly drawn) [28B, β-bis-2-methoxyethylamine], for which the figures for the GI50 in the assay with MOLM-14 (setting [3]) and with MV4;11 (setting [4]) were 15 nM and 9.5 nM, respectively.
On to `CC(C)(C)N[C@@H]1CCC2=CC3=CC[C@]4(C)C(c5ccc6ccncc6c5)CC[C@H]4C34CC[C@]2(C1)O4` (stereo partly drawn) [43A, α-t-butylamine], for which the results for the GI50 with MOLM-14 (setting [3]) and in the assay with MV4;11 (setting [4]) were 200 nM and 175 nM, respectively.
The corresponding values for `C[C@]12CC=C3C=C4CC[C@@H](NCC5(O)COC5)CC45CC[C@]3(O5)[C@@H]1CC[C@@H]2c1ccc2ccncc2c1` [72A, α-hydroxyaminomethyloxetane] are 4 nM and 8 nM.
Take `C[C@]12CC=C3C=C4CC[C@H](N5CCCC5)C[C@]45CC[C@]3(O5)[C@@H]1CC[C@@H]2c1ccc2ccncc2c1` [19B, β-pyrrolidine]: the GI50 in the assay with MOLM-14 (setting [3]) was 10 nM; in the assay on MOLM-14 (Homo sapiens, MOLM-14, day 7, fresh compound added on day 3, read-out: MOL M14 GI50 day 7) it was 16 nM; in the assay on MV4;11 (setting [4]), 8 nM; in the assay on MV4;11 (Homo sapiens, MV4-11, day 7, fresh compound added on day 3, read-out: MV4;11 GI50 day 7), 15 nM.
Take `C[C@]12CC=C3C=C4CC[C@@H]([N+](C)(C)[O-])CC45CC[C@]3(O5)[C@@H]1CC[C@@H]2c1ccc2ccncc2c1` [14ANO, 14A-N-Oxide]: the GI50 in the assay with MOLM-14 (setting [3]) turned out to be 14 nM; with MV4;11 (setting [4]) it was 1.75 nM.
Consider `CCN(C(C)C)[C@H]1CCC2=CC3=CC[C@]4(C)[C@@H](c5ccc6ccncc6c5)CC[C@H]4[C@@]34CC[C@]2(C1)O4` [34B], for which, in the assay with MOLM-14 (Homo sapiens, MOLM-14, 240 h, read-out: MOL M14 G150 day 10 (nM)), the IC50 was 15 nM. In addition, the GI50 in the assay on MV4;11 (Homo sapiens, MV4-11, 240 h, read-out: MV 4;11 GI50 day 10 (nM)) was 8.5 nM.
With `COCCN(C)[C@H]1CCC2=CC3=CC[C@]4(C)C(c5ccc6ccncc6c5)CC[C@H]4[C@@]34CC[C@]2(C1)O4` (stereo partly drawn) [27B, β-2-methoxyethylmethylamine], the GI50 with MOLM-14 (setting [3]) was found to be 10 nM; with MV4;11 (setting [4]) it was 7 nM.
The corresponding values for `CC(C)N[C@H]1CCC2=CC3=CC[C@]4(C)[C@@H](c5ccc6ccncc6c5)CC[C@H]4[C@@]34CC[C@]2(C1)O4` [32B, β-isopropylamine] are 55 nM and 27 nM.
Turning to `CN(C)[C@H]1CCC2=CC3=CC[C@]4(C)[C@@H](C(=O)Nc5cccnc5)CC[C@H]4[C@@]34CCC2(C1)O4` [50B, β-dimethylamine amidepyridine], the GI50 in the assay on MOLM-14 (setting [5]) and in the assay with MV4;11 (setting [6]) was over 1000 nM throughout.
`C[C@]12CC=C3C=C4CC[C@H](N5[C@H]6CC[C@@H]5CC6)C[C@]45CC[C@]3(O5)[C@@H]1CC[C@@H]2c1ccc2ccncc2c1` [31B, β-7-Azabicyclo[2.2.1]heptane]: the GI50 came out at 100 nM with MOLM-14 (setting [3]) and 75 nM with MV4;11 (setting [4]).
As for `CN(C)[C@H]1CCC2=CC3=CC[C@]4(C)C(C(=O)Nc5cccnc5)=CC[C@H]4[C@@]34CCC2(C1)O4` [49B, β-dimethylamine 17,18-unsaturated amidepyridine], the GI50 in the assay with MOLM-14 (setting [5]) and in the assay with MV4;11 (setting [6]) was over 1000 nM throughout.
On to `C[C@]12CC=C3C=C4CC[C@@H](N5CC(O)C5)C[C@]45CCC3(O5)[C@@H]1CC[C@@H]2c1ccc2ccncc2c1` [70A, α-hydroxyazetidine], for which the results for the GI50 with MOLM-14 (setting [3]) and with MV4;11 (setting [4]) were 12 nM and 7 nM, respectively.
The corresponding values for `C[C@]12CC=C3C=C4CC[C@H](N5CC[C@@H](F)C5)C[C@]45CC[C@]3(O5)[C@@H]1CC[C@@H]2c1ccc2ccncc2c1` [35B, β-(R)-3-fluoropyrrolidine] are 160 nM and 80 nM.
In the case of `CN(C)[C@H]1CCC2=CC3=CC[C@]4(C)C(c5ccc6cnncc6c5)=CC[C@H]4C34CC[C@]2(C1)O4` [55B, β-dimethylamine 17,18-unsaturated phthalazine], the GI50 in the assay on MOLM-14 (setting [5]) and in the assay with MV4;11 (setting [6]) was over 1000 nM throughout.
Take `C[C@]12CC=C3C=C4CC[C@H](NC5CC5)C[C@]45CCC3(O5)[C@@H]1CCC2c1ccc2ccncc2c1` (stereo partly drawn) [39B, β-cyclopropylamine]: the GI50 with MOLM-14 (setting [3]) amounted to 30 nM; with MV4;11 (setting [4]) it was 17 nM.
With `C[C@]12CC=C3C=C4CC[C@H](N5CCC(F)(F)C5)C[C@]45CC[C@]3(O5)[C@@H]1CC[C@@H]2c1ccc2ccncc2c1` [37B, β-3,3-difluoropyrrolidine], the GI50 with MOLM-14 (setting [3]) came out at 200 nM; in the assay on MV4;11 (setting [4]), 65 nM.
In the same order, the values of `CN(C1CC1)[C@H]1CCC2=CC3=CC[C@]4(C)C(c5ccc6ccncc6c5)CC[C@H]4C34CC[C@]2(C1)O4` (stereo partly drawn) [40B, β-Cyclopropylmethylamine] are 25 nM and 16 nM.
With `CN(CC1(C)COC1)[C@H]1CCC2=CC3=CC[C@]4(C)[C@@H](c5ccc6ccncc6c5)CC[C@H]4[C@@]34CCC2(C1)O4` [42B, β-N-methyl-1-(3-methyl-3-oxetanyl)methanamine], the GI50 in the assay on MOLM-14 (setting [3]) came to 20 nM; in the assay on MV4;11 (setting [4]), 7.5 nM.
For `CC(C)N(C)[C@H]1CCC2=CC3=CC[C@]4(C)[C@@H](c5ccc6ccncc6c5)CC[C@H]4[C@@]34CC[C@]2(C1)O4` [33B, β-isopropylmethylamine], the GI50 was 60 nM in the assay on MOLM-14 (setting [3]) and 22 nM in the assay on MV4;11 (setting [4]).
